From US12428396B2, “Fused pyridine ring derivative, preparation method therefor, and pharmaceutical use thereof” (priority 2019, dated 2025)
Read-outs that look alike come from different tables or passages of the source.

Experiments:
[1] = Beagle pharmacokinetic study (ig/sc/iv, plasma LC/MS/MS); type: in vivo, beagles; conditions: for AUC(0-t) / half-life / Cmax: dog, plasma; for AUC(0-t): read-out: Area under curve AUC0-72; for half-life: read-out: Half life T½ (converted); for Cmax: read-out: Plasma concentration Cmax
Method: Taking beagles as test animals, and the drug concentrations in dog plasma at various times after intragastric administration (ig)/subcutaneous injection (sc)/intravenous injection (iv) administration of the compound of Example 1-1 and Positive Control Example 1 were measured by using LC/MS/MS method. The pharmacokinetic performance in beagles of the compounds of the present disclosure was studied and the pharmacokinetic profile thereof was evaluated.
18 non-naïve beagles (999M-004, medicilon) with 7-12 kg, every 3 of which were in one group.
The intragastric administration group: a certain amount of the compounds was weighed, ethanol with a volume of 5% of the final volume, 20% PG, 45% PEG300 and 30% deionized water were added (the pH was adjusted to be about 2 with 0.01 N HCl), and the reaction mixture was subjected to ultrasonic stirring for uniform mixing to give an administration solution at a concentration of 0.8 mg/mL.
The subcutaneous injection administration group: a certain amount of the compounds was weighed, 2% aqueous poloxamer 188 solution with a proper volume was added, and the reaction mixture was subjected to ultrasonic stirring for uniform mixing to give a suspension administration solution at a concentration of 200 mg/mL.
The intravenous administration group: a certain amount of the compounds was weighed, 5% volume of DMSO, 30% PG, 30% PEG400 and 35% volume of normal saline were added, and the reaction mixture was subjected to vortex ultrasonic stirring for uniform mixing to give an administration solution at a concentration of 0.5 mg/mL.
Beagles were intragastrically administered with the compounds after fasting overnight, at a dose of 4.0 mg/kg and a volume of 5.0 mL/kg.
Beagles were subcutaneously injected with the compounds after fasting overnight, at a dose of 6.0 mg/kg and a volume of 0.03 mL/kg.
Beagles were intravenously injected with the compounds after fasting overnight, at a dose of 1.0 mg/kg and a volume of 2 mL/kg.
Beagles were intragastrically administered with the compound of Example 1-1/Positive Control Example 1, and 1 mL of blood was collected from the orbit before administration and at 0.25 h, 0.5 h, 1.0 h, 2.0 h, 4.0 h, 6.0 h, 8.0 h, 12.0 h, 24 h, 32 h, 48 h, 56 h and 72 h after administration, respectively, and placed in EDTA-K2 anticoagulant blood collection tubes, plasma was centrifuged (centrifugal force: 2200 g, centrifugation time: 10 min, 2-8° C.), and stored at −80° C., and food intake was resumed 3 h after administration.
The compound of Example 1-1/Positive Control Example 1 was subcutaneously injected to beagles, and 1 mL of blood was collected before administration and at 1.0 h, 3.0 h, 8.0 h, 24 h, 48 h, 72 h, 96 h, 168 h, 336 h, 432 h and 504 h after administration, respectively, and placed in EDTA-K2 anticoagulant blood collection tubes, plasma was centrifuged (centrifugal force: 2200 g, centrifugation time: 10 min, 2-8° C.), and stored at −80° C., and food intake was resumed 3 h after administration.
The content of the compound to be tested in the plasma of beagles was determined after the intragastric administration of the compounds at different concentrations: 20 μL of the plasma in beagles at each time after administration was taken, 200 μL of methanol containing internal standard (100 ng/mL) was added, the reaction mixture was subjected to vortex mixing for 1 min, and centrifuged for 7 min (centrifugal force: 18000 g), and 1 μL of the supernatant was taken from the plasma sample for LC/MS/MS analysis. […]

[2] = Monkey pharmacokinetic study (iv, plasma LC/MS/MS); type: in vivo, cynomolgus monkeys; conditions: cynomolgus monkey, intravenous injection, 1 mg/kg
Method: Taking cynomolgus monkeys as test animals and the drug concentrations in monkey plasma at various times after intravenous injection (iv) of the compounds of Example 1-1 and Positive Control Example 1 were measured by using LC/MS/MS method. The pharmacokinetic performance in cynomolgus monkeys of the compounds of the present disclosure was studied and the pharmacokinetic profile thereof was evaluated.
6 non-naïve cynomolgus monkeys (999M-004, medicilon) with 2-5 kg, every 3 of which were in one group.
A certain amount of the compounds was weighed, 5% volume of DMSO, 30% PG, 30% PEG400 and 35% volume of normal saline were added, and the reaction mixture was subjected to vortex ultrasonic stirring for uniform mixing to give a clean administration solution at a concentration of 0.5 mg/mL.
Monkeys were intravenously injected with the compounds after fasting overnight, at a dose of 1.0 mg/kg and a volume of 2 mL/kg.
The compound of Example 1-1/Positive Control Example 1 was intravenously injected to monkeys, and 1 mL of blood was collected through femoral vein before administration and at 5 min, 0.25 h, 0.5 h, 1.0 h, 2.0 h, 4.0 h, 8.0 h, 12.0 h, 24 h, 32 h, 48 h, 56 h and 72 h after administration, respectively, and placed in EDTA-K2 anticoagulant blood collection tubes, plasma was centrifuged (centrifugal force: 2200 g, centrifugal time: 10 min, 2-8° C.), and stored at −80° C., and food intake was resumed 3 h after administration.

[3] = po, intragastric administration, 4 mg/kg
[4] = sc, subcutaneous injection, 6 mg/kg

Q: What does the source list for `CC(C)(C#Cc1nc([C@H](Cc2cc(F)cc(F)c2)NC(=O)Cn2nc(C(F)(F)F)c3c2C(F)(F)[C@@H]2C[C@H]32)c(-c2ccc(Cl)c3c(NS(C)(=O)=O)nn(CC(F)(F)F)c23)c2c1CCC2)S(C)(=O)=O` (atropisomer, axis not shown; (aR)) [Example 1-1, N—((S)-1-((R)-4-(4-chloro-3-(methanesulfonamide)-1-(2,2,2-trifluoroethyl)-1H-indazol-7-yl)-1-(3-methyl-3-(methylsulfonyl)but-1-yn-1-yl)-6,7-dihydro-5H-cyclopenta[c]pyridin-3-yl)-2-(3,5-difluorophenyl)ethyl)-2-((3bS,4aR)-5,5-difluoro-3-(trifluoromethyl)-3b,4,4a,5-tetrahydro-1H-cyclopropa[3,4]cyclopenta[1,2-c]pyrazol-1-yl)acetamide]?
A: AUC(0-t) ([1]; intravenous injection, 1 mg/kg): 16500 ng·h/mL; half-life ([1]; intravenous injection, 1 mg/kg): 41.8 h; Cmax ([1]; intravenous injection, 1 mg/kg): 1320 ng/mL; AUC(0-t) [1, 3]: 8230 ng·h/mL; half-life [1, 3]: 44.3 h; Cmax [1, 3]: 251 ng/mL; AUC(0-t) [1, 4]: 34800 ng·h/mL; Cmax [1, 4]: 122 ng/mL; Clearance CLz/F ([1]; intravenous injection, 1 mg/kg): 0.7 mL/min/kg; Clearance CLz/F [2]: 2.0 mL/min/kg; AUC(0-t) ([2]; plasma, read-out: Area under curve AUC0-72): 8520 ng·h/mL
